From patent publication US20070135365A1, “Pharmaceutical composition for preventing or remedying cardiac hypertrophy and cardiovascular disease caused thereby” (priority 2003, published 2007)

Experiments:
PKD1 [1] = assay: Immunoprecipitation kinase assay with Syntide-2 on PKD1 from drug-treated NRC; format: cell-based, rat; settings: for phosphorylation activity of PKD1 (Syntide-2) relative to untreated NRC: NRC treated 20 minutes, 100 nM TPA, 100 μM NE (containing 2 μM propranol) or 20 nM LIF, n=9
Procedure: The ability of PKD1 to phosphorylate Syntide-2 (APLARTLSVAGLPGKK), which is a selective substance for PKD1, can be used as an index to assess PKD1 activity (Valverde, A. M., et al., Proc. Natl. Acad. Sci. USA, 91, 1994, p. 8572-8576).
Concretely, immunoprecipitation kinase assays using Syntide-2 as a substrate were conducted on the following NRC samples: NRC samples with cardiac hypertrophy induced by treating for 20 minutes respectively with (1) 100 nM TPA, (2) 100 μM NE, and (3) 20 nM LIF, and NRC samples treated for 20 minutes respectively with (4) 400 nM GF109203X (PKC inhibitor), (5) 20 nM TPA+400 nM GF109203X, (6) 100 μM NE+400 nM GF109203X, and (7) 20 nM LIF+400 nM GF109203X. The phosphorylation activity of PKD1 present in the various NRC samples was measured. In addition, as a control, the phosphorylation activity of PKD1 present in NRC that was not treated with anything (untreated NRC) was described and measured in the same way.
NRC prepared by the same method as described in (1) of Experiment 1 was cultured over night (5% CO2 concentration, 37° C.) in DMEM without blood serum (manufactured by Nacalai Tesque). To the cultured cells, (1) 100 nM TPA, (2) 100 μM NE (containing 2 μM propranol), (3) 20 nM LIF, (4) 400 nM GF109203X (PKC inhibitor), (5) 20 nM TPA+400 nM GF109203X, (6) 100 μM NE+400 nM GF109203X, and (7) 20 nM LIF+400 nM GF109203X were added respectively, and treated for 20 minutes. The cells obtained were treated with Lysis buffer solution A, and incubated for 60 minutes on ice together with anti-fully active PKD1 polyclonal antibody. This was treated with protein G Sepharose 4B, and protein bound to the resin (Protein G Sepharose 4B bound PKD1-anti-PKD1 antibody complex) was recovered. The PKD1 immunoprecipitate was rinsed 1 time in Lysis buffer solution A, and further rinsed 2 times with Lysis buffer solution A not containing NaF.
The PKD1 was eluted from PKD1 immunoprecipitate obtained by incubating in Lysis buffer solution A not containing NaF together with 100 μL of 0.5 mg/mL immunizing peptide. The immunizing peptide is an antigen peptide used in order to immunize test animals to create anti-fully active PKD1 polyconal antibody. When incubating this peptide with protein G Sepharose 4B bound PKD1-anti-PKD1 antibody complex, the aforementioned antigen peptide and the anti-PKD1 antibody bond, and as a result, PKD1 can be freed and obtained.
The eluted PKD1 (10 μL) was incubated for 5 minutes at 30° C. together with assay mixed solution (15 μL Tris/MgCl2 (100 mM Tris, 100 mM MgCl2), 5 μL ATP (800 μM), 0.2 μL ^32γ-ATP, and 40 μg Syntide-2). Next, the PKD1 phosphorylation activity was measured by liquid scintillation counter (n=9).

[2] = test system: neonatal rat cardiomyocytes (NRC); assay: Immunofluorescence of α-actinin: sarcomere structures (cardiac hypertrophy state) in drug-treated NRC; format: cell-based
Procedure: (§1) NRC prepared by a method similar to the method as described in (1) of Experiment 1 was moved to a glass culture plate (35 mm diameter) coated with poly-L-lysine, and was cultured over night (5% CO2 concentration, 37° C.) in DMEM without blood serum (manufactured by Nacalai Tesque). TPA was added to this to make a final concentration of 20 nM, and this was cultured a further 18 hours (5% CO2 concentration, 37° C.) (approximately 1×10^3 cells). After culturing, the cells obtained were rinsed 2 times with PBS, fixed by treating with 4 w/v % paraformaldehide for 30 minutes at room temperature, treated by soaking in PBS containing 0.25 v/v % Triton X-100 for 30 minutes at 4° C., and then incubated in blocking buffer solution (PBS containing 3 w/v % BSA, 2 v/v % FBS, 1 v/v % normal goat blood serum, and 0.03 v/v % Triton X-100).
(§2) This was rinsed 2 times in PBS, moved into PBS containing 0.3 v/v % Cy3-labeled anti-mouse IgG antibody, and 0.3 v/v % Cy2-labeled anti-rabbit IgG antibody (second antibody) (both manufactured by Amersham Pharmacia), and incubated for 1 hour at room temperature. The fluorescent signals of the cells were observed by a confocal laser scanning microscope LSM5 Pascal (manufactured by Carl Zeiss Inc.). Untreated NRC (None), which was not treated with TPA, was labeled with antibodies in the same manner as a contrast, and the results of observing the cell luminescence signals by confocal laser microscope (LSM5 Pascal) are indicated in FIG. 3B.
(§3) Specifically, NRC prepared by the same method as described above in (1) of Experiment 1 was moved to a glass culture plate (35 mm diameter) coated with poly-L-lysin, and was cultured over night (5% CO2 concentration, 37° C.) in DMEM without blood serum (manufactured by Nacalai Tesque). Five samples of the culture cells in question were used and added respectively to (1) 100 μM (final concentration, same hereinafter) NE (containing 2 μM propranol), (2) 100 μM AngII, (3) 20 nM LIF, (4) 100 μM NE (containing 2 μM propranol)+400 nM GF109203X (concretely, treated for 30 minutes by adding GF109203X, and then NE was added), (5) 20 nM LIF+400 nM GF109203X (concretely, treated for 30 minutes by adding GF109203X, and then LIF was added), and these were cultured a further 38 hours (5% CO2 concentration, 37° C.) (approximately 1×10^3 cells).
(§4) After culturing, the cells were rinsed 2 times with PBS, fixed by treating with 4 w/v % paraformaldehide for 30 minutes at room temperature, treated by soaking in PBS containing 0.25 v/v % Triton X-100 for 30 minutes at 4° C., and then incubated in blocking buffer solution (PBS containing 3 w/v % BSA, 2 v/v % FBS, 1 v/v % normal goat blood serum, and 0.03 v/v % Triton X-100). […] This was rinsed 2 times in PBS, moved into PBS containing 0.3 v/v % Cy3-labeled anti-mouse IgG antibody, and 0.3 v/v % Cy2-labeled anti-rabbit IgG antibody (second antibody) (both manufactured by Amersham Pharmacia), and incubated for 1 hour at room temperature. The fluorescent signals of the cells were observed by a confocal laser scanning microscope LSM5 Pascal (manufactured by Carl Zeiss Ltd.).

[3] = test system: fully active PKD1 (phosphorylated PKD1); assay: Immunofluorescence: intracellular distribution of fully active PKD1 in drug-treated NRC; format: cell-based, rat; settings: for full activation (phosphorylation) of PKD1 and movement to sarcomere Z-discs: 100 μM NE (containing 2 μM propranol), 100 μM AngII or 20 nM LIF
Procedure: as §1, §2, §3, §4

PKCε and PKD1 = assay: Immunoprecipitation assay and Western blotting for interaction of PKCε and PKD1 in NE-treated NRC; format: cell-based, rat; settings: 100 μM NE (containing 2 μM propranol), versus NRC not treated with NE
Procedure: Primary NRC in culture prepared according to the method described in Experiment 1 (1) was treated with 100 μM NE (containing 2 μM propranol) in the same manner as in Experiment 3; the NE treated NRC in question was treated with Lysis buffer solution A; and 1 mL of cell extract (cell lysate) was obtained. […] of the cell extract was incubated for 60 minutes on ice together with anti-PKD1/2 monoclonal antibody; and this was then treated with protein G Sepharose 4B, and protein bound to the resin in question (anti-PKD1 antibody immunoprecipitate sample) was recovered. As indicated in experiment 1, no PKD2 was present in the NRC. Using anti-PKDε monoclonal antibody made in the same manner, anti-PKDε antibody immunoprecipitate sample was collected. As a control, 1 mL cell extract (cell lysate) of untreated NRC was obtained in the same way, and anti-PKDε antibody immunoprecipitate sample and anti-PKD1 antibody immunoprecipitate sample were prepared.
Next, Western blotting was conducted on the anti-PKCε antibody immunoprecipitate samples and the cell extract (cell lysate) obtained for the various NRC by using anti-PKD1/2 monoclonal antibody as the first antibody, and anti-mouse or anti-rabbit IgG bound with horseradish derived peroxidase (manufactured by Amersham Pharmacia) as the second antibody. […]

PKD1 [4] = assay: Western blotting of cytoplasm and cell membrane fractions of TPA-treated NRC; format: cell-based, rat; settings: 100 nM TPA, 20 minutes, versus untreated
Procedure: The NRC prepared above was moved to non-serum DMEM (manufactured by Nacalai Tesque), and cultured overnight (5% CO2 concentration, 37° C.). Then, TPA was added to the culture to make a final concentration of 100 nM, and incubated for 20 minutes. Next, the cardiomyocytes were recovered and rinsed in PBS, subjected to bacteriolysis by treating with Lysis buffer solution (having the same composition as Lysis buffer solution A except that the Triton X-100 was 0.1%), centrifuged (15000 rpm, approximately 10 minutes), and fractioned into supernatant (cytoplasm fraction) and precipitate. The precipitate was further dissolved in Lysis buffer solution A. This was lightly separated by centrifuge, and the supernatant obtained was taken as the cell membrane fraction. As a control, NRC that was not treated with TPA was subjected to bacteriolysis, and the cytoplasm and cell membrane fractions were separated in the same manner as above (untreated substance). […]
Next, anti-mouse or anti-rabbit IgG bound with horseradish derived peroxidase (manufactured by Amersham Pharmacia) was used as the second antibody reagent, so that it is possible to observe the blotting results with chemical luminescence on X-ray film.

[5] = test system: fully active PKD1 (phosphorylated PKD1); assay: Immunofluorescence: intracellular distribution of fully active PKD1 in drug-treated NRC; format: cell-based, rat; settings: cardiomyocytes in which EGF was allowed to act
[6] = 400 nM GF109203X for 30 minutes, then 100 μM NE (containing 2 μM propranol), 38 hours
[7] = 38 hours, 100 μM NE (containing 2 μM propranol), 100 μM AngII or 20 nM LIF

In the case of `CN(C)CCCn1cc(C2=C(c3c[nH]c4ccccc34)C(=O)NC2=O)c2ccccc21` [GF109203X], the “intrinsic PKD1 activity with TPA plus PKC inhibitor” value (PKD1 [1]; NRC, 20 minutes, 20 nM TPA+400 nM GF109203X) is reported as “suppressed to the same level as that of the negative control”, the “intrinsic PKD1 activity with NE plus PKC inhibitor” value (PKD1 [1]; NRC, 20 minutes, 100 μM NE+400 nM GF109203X) is reported as “suppressed to the same level as that of the negative control” and the “effect on LIF-induced cardiac hypertrophy” value ([2]; 400 nM GF109203X for 30 minutes, then 20 nM LIF, 38 hours) is reported as “a cardiac hypertrophy state was revealed”. For the same compound, the “effect on NE-induced cardiac hypertrophy” value [2, 6] was “no cardiac hypertrophy is generated” and the “effect on NE-induced full activation of PKD1 and movement to sarcomere Z-discs” value [3, 6] was “no fully activated PKD1 (phosphorylation) and no movement to sarcomere Z-discs were observed”.

In the case of `NC[C@H](O)c1ccc(O)c(O)c1` [NE, Norepinephrine], the “phosphorylation activity of PKD1 (Syntide-2) relative to untreated NRC” value (PKD1 [1]) is reported as “notably higher phosphorylation activity”, the “induction of cardiac hypertrophy (formation of sarcomere structures, visualization of Z-discs)” value (“induction of cardiac hypertrophy” for short) [2, 7] is reported as “induced cardiac hypertrophy” and the “full activation (phosphorylation) of PKD1 and movement to sarcomere Z-discs” value (from here on “full activation (phosphorylation)”) ([3]; 38 hours) is reported as “PKD1 was fully activated (phosphorylated)”. The “formation of complex of PKCε and PKD1” value (PKCε and PKD1) was “complex of PKCε and PKD1 were formed”.

With `CCCCCCCCCCCCCC(=O)O[C@@H]1[C@@H](C)[C@@]2(O)[C@@H](C=C(CO)C[C@]3(O)C(=O)C(C)=C[C@@H]23)[C@H]2C(C)(C)[C@]12OC(C)=O` [TPA, 12-0-tetradecanoylphorbol 13-acetate] the “fully active PKD1 (phosphorylated PKD1) in cytoplasm and membrane fractions” value (PKD1 [4]) was “present in large amounts in the membrane fraction”, the “phosphorylation activity of PKD1 (Syntide-2) relative to untreated NRC” value (PKD1 [1]) was “notably higher phosphorylation activity” and the “induction of cardiac hypertrophy” value ([2]; 20 nM TPA, 18 hours) was “cardiac hypertrophy was induced”. For the same compound, the “activation of PKD1 and localization of fully active PKD1” value ([3]; 20 nM TPA, 18 hours) was “the fully activated PKD1 moves to the sarcomere Z-disc region”.

For “Angiotensin II (DRVYIHPF; Angiotensin-2; UniProt P01019 25-32, looked up) [AngII, cardiac hypertrophy inducer]”, the “induction of cardiac hypertrophy” value [2, 7] was “induced cardiac hypertrophy” and the “full activation (phosphorylation)” value ([3]; 38 hours) was “PKD1 was fully activated (phosphorylated)”.

For Epidermal growth factor [EGF], the “full activation of PKD1 and movement to sarcomere Z-discs” value [5] was “also observed”.

With Leukemia inhibitory factor [LIF] the “phosphorylation activity of PKD1 (Syntide-2) relative to untreated NRC” value (PKD1 [1]) was “hardly different from that of untreated NRC”, the “induction of cardiac hypertrophy” value [2, 7] was “inducing cardiac hypertrophy” and the “full activation (phosphorylation)” value ([3]; 38 hours) was “no full activation (phosphorylation) of PKD1 and no movement of PKD1 to the vicinity of the sarcomere Z-discs”.
